Legend:
[1] = rat, in vivo, 4 weeks
Protocol: The starting dose of 10 mg QD was selected based on non-clinical, 4-week toxicology studies conducted in rats and dogs. […] The proposed human dose was based on one-tenth of the STD10 in rats corrected for body surface area (mg/m^2).

advanced solid tumors = test: Clinical activity by RECIST v1.1 (ORR, DoR, PFS, OS), phase 1b; format: in vivo, human
Protocol: Clinical activity was assessed by objective response rate (ORR) according to Response Evaluation Criteria In Solid Tumors (RECIST) v1.1. Additional endpoints included duration of response (DoR), progression-free survival (PFS) and overall survival (OS) in phase 1b cohorts of patients based on diagnosis and tumor molecular alterations. An exploratory post-hoc analysis of patients with non-squamous NSCLC who experienced disease progression on prior checkpoint inhibitor (CPI) therapy was performed.
Disease status was evaluated according to RECIST v1.1 at baseline and every three cycles in phase 1, and every two cycles (6-week intervals) in phase 1b. Assessments were performed until objective disease progression was documented or until subsequent anti-cancer therapy started (see Supplementary Information [Sect. 1.3] for details).
DoR, PFS and OS were reported descriptively and summarized using the Kaplan–Meier method. DoR was defined as the time from first documentation of objective tumor response (complete response [CR] or partial response [PR]) until first documentation of disease progression per RECIST 1.1 or death (any cause). PFS was defined as the time from first dose of study treatment until progressive disease as defined by RECIST 1.1 or death (any cause). OS was defined as the time from first dose of study treatment until death (any cause).

[2] = NSCLC with molecular alterations (n = 53)
[3] = non-squamous NSCLC with prior CPI experience (n = 24)
[4] = phase 1b Chr4q12 amplification (n=16)

With `COCCNCc1ccc(-c2cc3nccc(Oc4ccc(NC(=O)C5(C(=O)Nc6ccc(F)cc6)CC5)cc4F)c3s2)nc1` [sitravatinib, Sitravatinib] the “Highest dose not exceeding the severely toxic dose in 10% of animals (STD10)” value [1] was 10 mg/kg, the ORR (advanced solid tumors; NSCLC with a molecular alteration of interest) was 13.2% and the CR (advanced solid tumors; [2]) was 0 n (%). The “DoR 6-month KM estimate (95% CI)” value (advanced solid tumors; [2]) was 28.6 (4.1, 61.2) %, the “DoR median (95% CI)” value (advanced solid tumors; [2]) was 3.0 (1.8, 10.2) months and the “NE (non-evaluable)” value (advanced solid tumors; [2]) was 8 (15.1) n (%). The ORR (advanced solid tumors; [2]) was 7 (13.2) n (%), the “OS 12-month KM estimate (95% CI)” value (advanced solid tumors; [2]) was 47.6 (32.4, 61.3) % and the “OS median (95% CI)” value (advanced solid tumors; [2]) was 11.6 (6.6, 18.2) months. For the same compound, the “PD (progressive disease)” value (advanced solid tumors; [2]) was 8 (15.1) n (%), the “PFS 6-month KM estimate (95% CI)” value (advanced solid tumors; [2]) was 32.2 (19.2, 46.0) % and the “PFS median (95% CI)” value (advanced solid tumors; [2]) was 4.3 (2.9, 5.7) months. The PR (advanced solid tumors; [2]) was 7 (13.2) n (%), the ORR (advanced solid tumors; non-squamous NSCLC with prior CPI experience (exploratory)) was 4.2% and the CR (advanced solid tumors; [3]) was 0 n (%). For the same compound, the “DoR 6-month KM estimate (95% CI)” value (advanced solid tumors; [3]) was 100 (100, 100) %, the “DoR median (95% CI)” value (advanced solid tumors; [3]) was 10.2 (NE, NE) months and the “NE (non-evaluable)” value (advanced solid tumors; [3]) was 6 (25.0) n (%). The ORR (advanced solid tumors; [3]) was 1 (4.2) n (%), the “OS 12-month KM estimate (95% CI)” value (advanced solid tumors; [3]) was 36.8 (16.5, 57.5) % and the “OS median (95% CI)” value (advanced solid tumors; [3]) was 5.2 (2.4, 33.8) months. The “PD (progressive disease)” value (advanced solid tumors; [3]) was 5 (20.8) n (%), the “PFS 6-month KM estimate (95% CI)” value (advanced solid tumors; [3]) was 24.8 (7.8, 46.6) % and the “PFS median (95% CI)” value (advanced solid tumors; [3]) was 2.9 (1.5, 4.9) months. The PR (advanced solid tumors; [3]) was 1 (4.2) n (%), the ORR (advanced solid tumors; overall phase 1b mITT population) was 11.8% and the CR (advanced solid tumors; phase 1b AXL alteration (n=7)) was 0 n (%). For the same compound, the NE (advanced solid tumors; phase 1b AXL alteration (n=7)) was 0 n (%), the ORR (advanced solid tumors; phase 1b AXL alteration (n=7)) was 1 (14.3) n (%) and the “OS 12-month KM estimate (95% CI)” value (advanced solid tumors; phase 1b AXL alteration (n=7)) was 26.8 (1.3, 67.0) %. The “OS median (95% CI)” value (advanced solid tumors; phase 1b AXL alteration (n=7)) was 10.0 (2.2, NE) months, the “PD (progressive disease)” value (advanced solid tumors; phase 1b AXL alteration (n=7)) was 2 (28.6) n (%) and the “PFS 6-month KM estimate (95% CI)” value (advanced solid tumors; phase 1b AXL alteration (n=7)) was 71.4 (25.8, 92.0) %. The “PFS median (95% CI)” value (advanced solid tumors; phase 1b AXL alteration (n=7)) was “NR (1.2, NE)”, the PR (advanced solid tumors; phase 1b AXL alteration (n=7)) was 1 (14.3) n (%) and the CR (advanced solid tumors; phase 1b CBL alteration (n=31)) was 0 n (%). The “DoR 6-month KM estimate (95% CI)” value (advanced solid tumors; phase 1b CBL alteration (n=31)) was 50.0 (0.6, 91.0) %, the “DoR median (95% CI)” value (advanced solid tumors; phase 1b CBL alteration (n=31)) was “NR (4.3, NE)” and the NE (advanced solid tumors; phase 1b CBL alteration (n=31)) was 9 (29.0) n (%). The ORR (advanced solid tumors; phase 1b CBL alteration (n=31)) was 2 (6.5) n (%), the “OS 12-month KM estimate (95% CI)” value (advanced solid tumors; phase 1b CBL alteration (n=31)) was 20.2 (7.4, 37.3) % and the “OS median (95% CI)” value (advanced solid tumors; phase 1b CBL alteration (n=31)) was 5.0 (3.2, 9.9) months. The “PD (progressive disease)” value (advanced solid tumors; phase 1b CBL alteration (n=31)) was 9 (29.0) n (%), the “PFS 6-month KM estimate (95% CI)” value (advanced solid tumors; phase 1b CBL alteration (n=31)) was 12.3 (3.1, 28.3) % and the “PFS median (95% CI)” value (advanced solid tumors; phase 1b CBL alteration (n=31)) was 2.0 (1.3, 4.1) months. The PR (advanced solid tumors; phase 1b CBL alteration (n=31)) was 2 (6.5) n (%), the CR (advanced solid tumors; phase 1b CRPC (n=10)) was 0 n (%) and the NE (advanced solid tumors; phase 1b CRPC (n=10)) was 3 (30.0) n (%). The ORR (advanced solid tumors; phase 1b CRPC (n=10)) was 0 n (%), the “OS 12-month KM estimate (95% CI)” value (advanced solid tumors; phase 1b CRPC (n=10)) was 18.2 (0.8, 54.5) % and the “OS median (95% CI)” value (advanced solid tumors; phase 1b CRPC (n=10)) was 10.1 (2.8, 23.2) months. The “PD (progressive disease)” value (advanced solid tumors; phase 1b CRPC (n=10)) was 1 (10.0) n (%), the “PFS 6-month KM estimate (95% CI)” value (advanced solid tumors; phase 1b CRPC (n=10)) was 50.0 (11.1, 80.4) % and the “PFS median (95% CI)” value (advanced solid tumors; phase 1b CRPC (n=10)) was 5.8 (2.1, NE) months. The PR (advanced solid tumors; phase 1b CRPC (n=10)) was 0 n (%), the CR (advanced solid tumors; [4]) was 0 n (%) and the NE (advanced solid tumors; [4]) was 4 (25.0) n (%). For the same compound, the ORR (advanced solid tumors; [4]) was 0 n (%), the “OS 12-month KM estimate (95% CI)” value (advanced solid tumors; [4]) was 35.2 (13.3, 58.2) % and the “OS median (95% CI)” value (advanced solid tumors; [4]) was 9.5 (3.6, 18.1) months. For the same compound, the “PD (progressive disease)” value (advanced solid tumors; [4]) was 3 (18.8) n (%), the “PFS 6-month KM estimate (95% CI)” value (advanced solid tumors; [4]) was 23.8 (5.8, 48.5) % and the “PFS median (95% CI)” value (advanced solid tumors; [4]) was 2.7 (1.3, 4.4) months. The PR (advanced solid tumors; [4]) was 0 n (%), the CR (advanced solid tumors; phase 1b MET alteration (n=17)) was 0 n (%) and the “DoR median (95% CI)” value (advanced solid tumors; phase 1b MET alteration (n=17)) was “NR (3.0, NE)”. The NE (advanced solid tumors; phase 1b MET alteration (n=17)) was 3 (17.6) n (%), the ORR (advanced solid tumors; phase 1b MET alteration (n=17)) was 2 (11.8) n (%) and the “OS 12-month KM estimate (95% CI)” value (advanced solid tumors; phase 1b MET alteration (n=17)) was 27.1 (8.4, 50.2) %.
